Assay results reported in article PMC11289669, “BAR502/fibrate conjugates: synthesis, biological evaluation and metabolic profile” (Frontiers in Chemistry, 2024).
“And” between values parts separate entries of the source, which are not always exact repeats. Equal values may be shown once. “Also recorded” adds a separate entry of the source.

Key:
[1] = molecular target: T1, PPARα (Homo sapiens, UniProt Q07869); assay: AlphaScreen coactivator (SRC-1) recruitment assay on PPARα; assay type: biochemical; conditions: AlphaScreen SRC-1 recruitment; compounds at 50 µM (footnote); fenofibrate = 100%
T1 construct: 20 nM PPARα LBD GST fused (Thermo Scientific); purchased Thermo Scientific
T1 sequence (Q07869 239-466 limits assumed): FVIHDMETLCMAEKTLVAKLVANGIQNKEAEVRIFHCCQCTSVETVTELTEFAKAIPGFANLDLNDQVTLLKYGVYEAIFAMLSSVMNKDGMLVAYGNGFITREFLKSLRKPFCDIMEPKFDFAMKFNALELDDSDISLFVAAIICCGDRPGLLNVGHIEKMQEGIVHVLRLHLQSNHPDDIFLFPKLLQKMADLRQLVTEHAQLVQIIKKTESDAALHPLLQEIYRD
Method: Compounds’ ability to mediate cofactor recruitment was evaluated by employing AlphaScreen GST Detection Kit (PerkinElmer). Particularly, FXR agonism was evaluated employing 10 nM FXR-LBD GST-fused (Thermo Scientific) and 30 nM of biotinylated SRC1 peptide ([…]) in the presence of 20 μg/mL donor and acceptor beads and in buffer containing 50 mM Tris-HCl (pH7.4), 20 mM KCl, 1 mM DTT, and 0.1% BSA. For PPARα assay, a buffer containing 50 mM MOPS, 50 mM NaF, 0.05 mM CHAPS, and 0.05% BSA (pH = 7.4) was used, and 20 nM PPARα LBD GST fused (Thermo Scientific) and 60 nM of biotinylated SRC1 peptide were employed. Both acceptor and donor beads were added to reach 20 μg/mL final concentration. Incubations were performed in a final volume of 25 μL employing 384 wells Optiplate and Alpha signal was measured with Envision 2,105 (Perkin Elmer) multimode plate reader. […]

[2] = Plasma profile / metabolite quantization in mice (LC-MS MRM); assay type: in vivo
[3] = In cell permeation and metabolism in HepG2 cells (LC-MSMS); assay type: in vitro ADME, human; conditions: 0–480 min
Method: HepG2 cells were treated with compound 1, BAR502 or clofibrate. At different time points (0–480 min) culture mediums and cells pellets were collected, extracted by adding ice-cold acetonitrile and analyzed by LC-MSMS.

[4] = Microsomal stability in human liver microsomes; assay type: in vitro ADME; conditions: pH 7.4, 1 µM
Method: Chemical stability in HCl Buffer, PBS buffer and culture medium (EMEM) was evaluated by LC-MS dissolving compound 1 at 10 μM (final concertation) in cited buffers and injecting aliquots removed from incubations at different time points. Microsomal stability was evaluated employing 50 mM potassium phosphate buffer (pH 7.4) containing 0.15 mg of Human liver microsomes (Sigma-Aldrich, St. Louis, MO, United States) 5 mM MgCl2, 1 mM NADPH, 5 mM glucose 6-phosphate, 0.4 U·mL^−1 glucose 6-phosphate dehydrogenase. Compounds were tested at 1 µM final concentration. Aliquots, removed at different time points, were diluted with ice-cold acetonitrile and analyzed by LC-MS.

[5] = tested on: 3T3-L1 cells; assay: 3T3-L1 preadipocyte differentiation, adipogenic marker gene expression (qRT-PCR); assay type: cell-based, murine; conditions: differentiation medium (DIM), 7 days, 10 µM
Method: The 3T3-L1 cells were cultured in Dulbecco’s modified Eagle’s medium (DMEM; Euroclone), supplemented with 10% fetal bovine serum, 1% l-glutamine, 100 U/mL penicillin, and 100 μg/mL streptomycin, at 37 °C. Preadipocytes of 3T3-L1 cells were plated at 1.7 × 10^6 cells in T75 flasks, and grown to confluence. Two days after reaching confluence (day 0), the cells were stimulated with differentiation medium (DIM), either alone (DMEM, 10% FBS, 500 μM 3-isobutyl-1-methylxanthine, 1 μM dexamethasone, […]), or in combination with BAR502 and clofibrate at the concentration of 5 µM or with compound 1 (10 µM). On day 3, the DIM was replaced by insulin medium (DMEM, 10% fetal bovine serum, […]) alone or with the compounds. On day 7 cells were recovered.
Total mRNA extraction from U937 and 3T3.L1 was performed using Tri-Reagent (Zymo Research) and Direct-zol™ RNA MiniPrep w/Zymo-Spin™ IIC Columns (Zymo Research, Irvine, CA). […] The relative mRNA expression was calculated accordingly to the ΔCt method. […]

CC[C@H]1[C@@H](O)[C@@H]2[C@H](CC[C@]3(C)[C@@H]([C@H](C)CCO)CC[C@@H]23)[C@@]2(C)CC[C@@H](O)C[C@@H]12 [BAR502, 6α-ethyl-3α,7α-dihydroxy-24-nor-5β-cholan-23-ol]
PPARα efficacy (% vs. fenofibrate) [1]: 36% and 36 ± 12%

CC[C@@H]1C2C[C@H](O)CC[C@]2(C)C2CC[C@@]3(C)C(CC[C@@H]3[C@H](C)CCOC(=O)C(C)(C)Oc3ccc(Cl)cc3)C2[C@@H]1O (stereo partly drawn) [Compound 1]
Plasma level of oxidized metabolite BAR505 ([2]; mice treated with compound 1, 30 mg/kg): highly abundant species
Plasma clofibric acid released, compared with that from clofibrate ([2]; mice, 30 mg/kg): superimposable
Unmodified compound in plasma ([2]; mice, 30 mg/kg, 0-8 h): not detected; also recorded: not found
Cell permeation (amount in cell pellets) compared to BAR502 [3]: higher cell permeation
Hydrolysis to clofibric acid in cells compared with clofibrate [3]: hydrolyzed more slowly
microsomal CLint at 1 µM [4]: 87 µL/min/mg
half-life at 1 µM ([4]; read-out: t1/2 in human microsomes): 27 min
Expression of markers of adipocyte differentiation (Adiponectin, Pparγ, Cebp) [5]: reduction in the expression of all markers of adipocyte differentiation
